The values that follow come from patent publication US20260199497A1, “GLUCOCORTICOID RECEPTOR AGONIST AND CONJUGATE THEREOF” (priority 2023, published 2026).

Assay type in all cases: cell-based
The target of experiment [1] is T1, glucocorticoid receptor (Homo sapiens, UniProt P04150).
T1 sequence (P04150 1-777): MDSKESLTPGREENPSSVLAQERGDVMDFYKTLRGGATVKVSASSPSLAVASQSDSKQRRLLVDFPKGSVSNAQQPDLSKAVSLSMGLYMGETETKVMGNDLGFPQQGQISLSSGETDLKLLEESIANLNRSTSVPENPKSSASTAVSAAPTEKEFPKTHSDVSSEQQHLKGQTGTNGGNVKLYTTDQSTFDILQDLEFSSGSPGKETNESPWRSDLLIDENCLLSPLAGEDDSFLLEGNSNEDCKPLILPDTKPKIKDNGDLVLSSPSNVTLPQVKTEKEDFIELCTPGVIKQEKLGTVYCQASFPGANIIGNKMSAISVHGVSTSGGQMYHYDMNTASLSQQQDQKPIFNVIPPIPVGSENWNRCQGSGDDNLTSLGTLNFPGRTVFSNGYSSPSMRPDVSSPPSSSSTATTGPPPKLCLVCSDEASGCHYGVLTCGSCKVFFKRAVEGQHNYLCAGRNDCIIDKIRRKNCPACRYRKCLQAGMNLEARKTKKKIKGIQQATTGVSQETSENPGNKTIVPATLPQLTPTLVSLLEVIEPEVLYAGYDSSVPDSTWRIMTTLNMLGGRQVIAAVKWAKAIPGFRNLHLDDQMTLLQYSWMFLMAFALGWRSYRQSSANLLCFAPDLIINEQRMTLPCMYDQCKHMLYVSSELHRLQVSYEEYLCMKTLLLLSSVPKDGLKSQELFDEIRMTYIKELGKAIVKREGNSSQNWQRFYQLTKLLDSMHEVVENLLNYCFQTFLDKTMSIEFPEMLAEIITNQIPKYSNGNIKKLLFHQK
The experiment can be described thus: In vitro activation activity of the glucocorticoid on the glucocorticoid receptor in Hela-MMTV luciferase reporter cells. The settings on record: 48 hours; for in vitro activation activity on the glucocorticoid receptor in the cells: Hela-MMTV cells, compared with comparative compound 1; for EC50: Hela-MMTV luciferase reporter cells. As to the method: The activation activity of the glucocorticoid on glucocorticoid receptor was tested in the constructed Hela-MMTV luciferase reporter system cells. Adherent Hela-MMTV cells were digested using a Trypsin-EDTA (0.25%) solution, counted, and the cells in a required number were resuspended in complete medium (1640+10% FBS). The cells were then plated in a 96-well cell culture plate at 10,000 cells/100 μl. The glucocorticoid was diluted in complete medium, starting at a final concentration of 75 nM, followed by 5-fold gradient dilution, and was added to the plated cells at 100 μl per well. The cells were incubated in a cell culture incubator at 37° C. for 48 hours. Then Bio-Lite luciferase assay reagent (Vazyme DD1201-03) was added to the cells at 20 μl per well, followed by homogeneously shaking for 10 minutes, and luminescence readings were obtained using a microplate reader. The data were imported into GraphPad Prism 8 software to calculate the EC50 value.

In experiment [2] the target is T2, glucocorticoid receptor (Homo sapiens, UniProt P04150).
T2 sequence (P04150 524-777 limits assumed): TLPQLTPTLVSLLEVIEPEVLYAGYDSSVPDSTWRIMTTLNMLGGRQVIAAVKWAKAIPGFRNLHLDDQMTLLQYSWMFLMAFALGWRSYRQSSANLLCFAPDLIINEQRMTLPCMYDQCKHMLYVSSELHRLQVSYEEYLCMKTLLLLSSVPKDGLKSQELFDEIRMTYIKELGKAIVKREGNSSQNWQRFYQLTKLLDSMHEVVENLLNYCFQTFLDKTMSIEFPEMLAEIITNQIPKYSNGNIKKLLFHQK
The experiment can be described thus: GRE reporter gene test (Experiment Example 1), HEK293T cells transfected with pGL4.35 and p-Bind GR Vector. The settings on record: for EC50: GRE reporter gene, HEK293T cells, 18-20 h incubation; for Emax: HEK-293T; for maximum agonistic effect (Emax): compared with dexamethasone, transfected HEK293T cells. As to the method: The compound of the present invention to be tested was formulated into a 10 mM solution with DMSO, and then subjected to 4-fold dilution at 10 concentration points using DMSO to obtain a 1000× mother liquor, with a final test concentration of 0.000038-10 μM.
(§1) HEK293T cells (ATCC) were plated in a 100 mm culture dish at a density of 6*10^6 cells/culture dish, and cultured for 16 h under the conditions of 37° C. and 5% CO2. Plasmids (pGL4.35 [luc2P/9XGAL4 UAS/Hygro], p-Bind GR Vector, Promega) and Lipofectamine® 3000 (Invitrogen) were mixed, added into the culture dish, and then incubated for 5-6 h under the conditions of 37° C. and 5% CO2.
In a 384-well plate (PerkinElmer), 25 nL of the compound mother liquor was added, and then HEK293T cells transfected with plasmids were added at a density of 18000 cells/well. The cells were incubated for 18-20 h under the conditions of 37° C. and 5% CO2.
After the incubation was ended, 25 μL of britelite plus luciferase assay reagent (PerkinElmer) was added, and then reading was performed using an Envision 2105 multiplate reader (PerkinElmer).
(§2) The activity was calculated using the following formula, % activity=100*(signal of compound well−average signal of negative control well)/(average signal of positive control well−average signal of negative control well). […] Fitting calculation of EC50 was performed on % activity and the logarithmic concentration of the compound using Graphpad 8.0, Y=Bottom+(Top−Bottom)/(1+10^((Log EC50−X)*HillSlope)), wherein Y is % activity, and X is the logarithmic concentration of the compound.

Another experiment concerns mouse B cells. The experiment can be described thus: In vitro inhibition of the proliferation of mouse B cells by the glucocorticoid. The settings on record: 4 days; for IC50: B-cell, 96 h, LPS 5 μg/ml stimulated mouse spleen B cells, live cells by flow cytometry; for in-vitro inhibitory activity on the proliferation of mouse B cells: LPS 5 μg/ml, ranking of the compounds. As to the method:
According to instructions of the EasySEP mouse panB cell sorting kit (Stemcell/1984/1×100e9 cells), B cells were isolated from mouse spleen cells. After obtaining the B cells, they were resuspended in complete medium (1640+10% FBS+50 uM β-mercaptoethanol), and added to a 96-well cell culture plate at 1E5 cells/100 μL per well. 4×LPS (20 μg/ml) was prepared, and add to the plated cells at 50 μL per well, with a final concentration of 5 μg/ml. The glucocorticoid was diluted with complete medium in a 5-fold gradient, starting at a final concentration of 20 nM, and added to the plated cells at 50 μL per well. The cells were incubated in a 37° C. cell culture incubator for 4 days. Then PI was added to the cells for dead cell staining, and the number of live cells was detected by flow cytometry. The cell viability was calculated using the number of live cells in the untreated wells as the denominator. The cell viability values was imported into the GraphPad Prism 8 software to calculate IC50. The structure of the comparative compound 1 is as follows: […]

Experiment [3] addresses T2, glucocorticoid receptor. The experiment can be described thus: GRE reporter gene test (Experiment Example 2), HEK293T cells transfected with pGL4.35 and p-Bind GR Vector. The settings on record: for EC50: GRE reporter gene, HEK293T cells, 18-20 h incubation; for Emax: HEK-293T. How it is done: The compound of the present invention to be tested was formulated into a 1 mM solution with DMSO, and then subjected to 4-fold dilution at 10 concentration points using DMSO to obtain a 1000× mother liquor, with a final test concentration of 0.0000038-1 μM.
as §1
In a 384-well plate (PerkinElmer), 25 nL of the compound mother liquor was added, and then HEK293T cells transfected with plasmids were added at a density of 18000 cells/well (25 μL). The cells were incubated for 18-20 h under the conditions of 37° C. and 5% CO2.
After the incubation was ended, 25 μL of britelite plus luciferase assay reagent (PerkinElmer) was added, and then reading was performed using an Envision 2105 multimode reader (PerkinElmer).
as §2

Molecules are shown by their SMILES.

Consider `C[C@]12C=CC(=O)C=C1[C@@H](F)C[C@H]1[C@@H]3CC[C@](OC(=O)c4ccc(F)c(N)c4)(C(=O)SCF)[C@@]3(C)C[C@H](O)[C@@]12F` [A-1], for which, at glucocorticoid receptor [1], the “in vitro activation activity on the glucocorticoid receptor in the cells” value was “superior to comparative compound 1” and the half-maximal effective concentration (EC50) stood at 0.0097 nM. On glucocorticoid receptor [2], the concentration giving a half-maximal response (EC50) was determined as 0.2 nM and the “maximum agonistic effect (Emax)” value is “superior to dexamethasone”. Moreover, on glucocorticoid receptor [2] (read-out: Emax), the Emax worked out at 102%. In the experiment on mouse B cells, the concentration for half-maximal inhibition (IC50) stood at 0.032 nM and the “in-vitro inhibitory activity on the proliferation of mouse B cells” value is on record as “most strongest inhibitory activity”.
In the experiment on mouse B cells, `C[C@H]1C[C@@]2(C)[C@@H](C[C@H]3O[C@@H](c4ccc(Cc5cccc(N)c5)cc4)O[C@]32C(=O)CO)[C@@H]2CCC3=CC(=O)C=C[C@]3(C)[C@H]21` [Comparative example 1] yielded an IC50 of 0.825 nM.
In the case of `C[C@@H]1C[C@H]2[C@@H]3C[C@H](F)C4=CC(=O)C=C[C@]4(C)[C@@]3(F)[C@@H](O)C[C@]2(C)[C@@]1(OC(=O)CCO)C(=O)SCF` [D-5], on glucocorticoid receptor [1], the “in vitro activation activity on the glucocorticoid receptor in the cells” value is “superior to comparative compound 1” and a half-maximal effect (EC50) was put at 0.154 nM. At glucocorticoid receptor [3], this compound came in with an EC50 of 1.3 nM and a maximal effect (Emax) of 132%. Also, the “maximum agonistic activity (Emax)” value on glucocorticoid receptor [3] (compared with dexamethasone, transfected HEK293T cells) is “superior to dexamethasone”. This compound also registered an IC50 with mouse B cells of 0.312 nM.
Consider `C[C@H](O)CC(=O)O[C@]1(C(=O)SCF)[C@H](C)C[C@H]2[C@@H]3C[C@H](F)C4=CC(=O)C=C[C@]4(C)[C@@]3(F)[C@@H](O)C[C@@]21C` [D-15, (6S,8S,9R,10S,11S,13S,14S,16R,17R)-6,9-difluoro-17-(((fluoromethyl)thio)carbonyl)-11-hydroxy-10,13,16-trimethyl-3-oxo-6,7,8,9,10,11,12,13,14,15,16,17-dodecahydro-3H-cyclopenta[a]phenanthren-17-yl (S)-3-hydroxybutyrate], for which the values for the EC50 on glucocorticoid receptor [1] and on glucocorticoid receptor [3] were 0.074 nM and 1.4 nM, respectively. Besides, at glucocorticoid receptor [3], the Emax amounted to 102%.
With `C[C@@H]1C[C@H]2[C@@H]3CCC4=CC(=O)C=C[C@]4(C)[C@@]3(F)[C@@H](O)C[C@]2(C)[C@@]1(O)C(=O)CO` [Dexamethasone, reference compound], the Emax at glucocorticoid receptor [3] came to 98.3%; on glucocorticoid receptor [2], 100%.
Regarding `C[C@@H]1C[C@H]2[C@@H]3C[C@H](F)C4=CC(=O)C=C[C@]4(C)[C@@]3(F)[C@@H](O)C[C@]2(C)[C@@]1(OC(=O)c1ccc(F)cc1)C(=O)SCF` [H-5], at glucocorticoid receptor [2], the EC50 was 0.16 nM and the “maximum agonistic effect (Emax)” value was “superior to dexamethasone”. Further, the Emax at glucocorticoid receptor [2] (read-out: Emax) was 107%.
For the compound `C[C@@H]1C[C@H]2[C@@H]3C[C@H](F)C4=CC(=O)C=C[C@]4(C)[C@@]3(F)[C@@H](O)C[C@]2(C)[C@@]1(OC(=O)c1ccc(F)c(N)c1)C(=O)OCF` [O-1, fluoromethyl (6S,8S,9R,10S,11S,13S,14S,16R,17R)-17-((3-amino-4-fluorobenzoyl)oxy)-6,9-difluoro-11-hydroxy-10,13,16-trimethyl-3-oxo-6,7,8,9,10,11,12,13,14,15,16,17-dodecahydro-3H-cyclopenta[a]phenanthrene-17-carboxylate], the concentration for a half-maximal effect (EC50) on glucocorticoid receptor [2] was found to be 0.2 nM. Moreover, the maximal response (Emax) on glucocorticoid receptor [2] (read-out: Emax) was determined as 87.3%.
`C[C@@H]1C[C@H]2[C@@H]3C[C@H](F)C4=CC(=O)C=C[C@]4(C)[C@@]3(F)[C@@H](O)C[C@]2(C)[C@@]1(OC(=O)c1ccc(F)c(N)c1)C(=O)OCCl` [O-3, chloromethyl (6S,8S,9R,10S,11S,13S,14S,16R,17R)-17-((3-amino-4-fluorobenzoyl)oxy)-6,9-difluoro-11-hydroxy-10,13,16-trimethyl-3-oxo-6,7,8,9,10,11,12,13,14,15,16,17-dodecahydro-3H-cyclopenta[a]phenanthrene-17-carboxylate]: the concentration giving a half-maximal response (EC50) on glucocorticoid receptor [2] is 0.4 nM. The Emax at glucocorticoid receptor [2] (read-out: Emax) was determined as 87.7%.
The corresponding values for `C[C@@H]1C[C@H]2[C@@H]3C[C@H](F)C4=CC(=O)C=C[C@]4(C)[C@@]3(F)[C@@H](O)C[C@]2(C)[C@@]1(OC(=O)c1ccnc(N)c1)C(=O)SCF` [P-1, (6S,8S,9R,10S,11S,13S,14S,16R,17R)-6,9-difluoro-17-(((fluoromethyl)thio)carbonyl)-11-hydroxy-10,13,16-trimethyl-3-oxo-6,7,8,9,10,11,12,13,14,15,16,17-dodecahydro-3H-cyclopenta[a]phenanthren-17-yl 2-aminoisonicotinate] are 1.4 nM and 91.2%.
In turn, `C[C@H]1C[C@@]2(C)[C@@H](C[C@H]3O[C@@H](c4ccc(Cc5cccc(N)c5)cc4)O[C@]32C(=O)CO)[C@@H]2CCC3=CC(=O)C=C[C@]3(C)[C@H]21` [comparative compound 1, reference compound] came in with an EC50 on glucocorticoid receptor [1] of 0.956 nM. Moreover, in the experiment with mouse B cells, the “in-vitro inhibitory activity on the proliferation of mouse B cells” value is reported as “relatively the weakest inhibitory activity”.
